Experiments:
[1] = target: T1, Prostaglandin G/H synthase 1 (Homo sapiens, UniProt P23219)
[2] = target: T2, Prostaglandin G/H synthase 2 (Homo sapiens) (UniProt P35354); test: Inhibition of COX2 at 0.1 ug/mL
T2 sequence (whole entry): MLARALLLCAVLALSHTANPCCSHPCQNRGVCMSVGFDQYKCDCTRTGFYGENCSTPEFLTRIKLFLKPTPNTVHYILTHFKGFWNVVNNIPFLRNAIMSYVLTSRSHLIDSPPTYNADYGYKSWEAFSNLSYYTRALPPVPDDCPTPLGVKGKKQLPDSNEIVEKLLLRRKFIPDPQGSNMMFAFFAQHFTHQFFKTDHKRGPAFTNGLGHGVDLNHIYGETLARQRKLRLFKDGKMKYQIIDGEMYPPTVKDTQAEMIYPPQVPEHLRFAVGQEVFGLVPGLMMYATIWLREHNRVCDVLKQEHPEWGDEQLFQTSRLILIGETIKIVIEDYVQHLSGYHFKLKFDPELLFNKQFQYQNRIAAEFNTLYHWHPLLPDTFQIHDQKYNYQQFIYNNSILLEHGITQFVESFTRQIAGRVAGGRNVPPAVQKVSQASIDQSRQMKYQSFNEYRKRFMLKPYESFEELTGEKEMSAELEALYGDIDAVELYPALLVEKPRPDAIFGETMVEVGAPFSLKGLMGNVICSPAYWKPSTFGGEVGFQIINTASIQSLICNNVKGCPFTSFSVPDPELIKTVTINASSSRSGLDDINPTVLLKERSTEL

[3] = target: T2, Prostaglandin G/H synthase 2 (Homo sapiens); test: Inhibition of COX2 at 170 uM
J774.A1 [4] = test: Inhibition of COX2 protein expression in mouse J774A1 cells; assay type: functional, cell-based
[5] = target: T2, Prostaglandin G/H synthase 2 (Homo sapiens); test: Inhibition of COX2 at 327 uM
[6] = target: T1, Prostaglandin G/H synthase 1; test: Inhibition of COX1 at 1000 uM
RAW264.7 [7] = test: Inhibition of COX2 protein expression in mouse RAW264.7 cells; assay type: functional, cell-based
J774.A1 [8] = test: Inhibition of COX2 protein expression in mouse J774A1 cells at 5 uM; assay type: functional
[9] = target: T2, Prostaglandin G/H synthase 2 (Homo sapiens); test: Inhibition of COX2 at 3.13 uM
[10] = target: T2, Prostaglandin G/H synthase 2 (Homo sapiens); test: Inhibition of COX2 at 25 uM
[11] = target: T1, Prostaglandin G/H synthase 1; test: Inhibition of COX1 at 30 ug/mL
SKGT4 [12] = test: Inhibition of COX2 mRNA expression in human SKGT4 cells; assay type: functional, cell-based
SKGT4 [13] = test: Inhibition of COX2 protein expression in human SKGT4 cells; assay type: functional, cell-based
[14] = target: T2, Prostaglandin G/H synthase 2 (Homo sapiens); test: Inhibition of COX2 at 313 uM
[15] = target: T1, Prostaglandin G/H synthase 1; test: Inhibition of COX1 at 200 ug/mL
[16] = target: T3, Prostaglandin G/H synthase 2 (Homo sapiens, UniProt P35354); test: Inhibition of COX2 at 1000 uM
T3 sequence (P35354 whole entry): T2 sequence (whole entry)

MCF-10A = test: Inhibition of COX2 protein expression in human MCF10A cells; assay type: functional, cell-based
[17] = target: T1, Prostaglandin G/H synthase 1; details: 180 ug/mL
Description: Inhibition of COX1 at 180 ug/mL

RAW264.7 [18] = test: Inhibition of COX2 mRNA expression in mouse RAW264.7 cells; assay type: functional, cell-based
[19] = target: T2, Prostaglandin G/H synthase 2 (Homo sapiens); test: Inhibition of COX2 at 2.5 ug/mL
[20] = target: T1, Prostaglandin G/H synthase 1; test: Inhibition of COX1 at 2.5 ug/mL
DLD-1 = test: Inhibition of COX2 mRNA expression in human DLD1 cells; assay type: functional, cell-based

T1 sequence (P23219 whole entry): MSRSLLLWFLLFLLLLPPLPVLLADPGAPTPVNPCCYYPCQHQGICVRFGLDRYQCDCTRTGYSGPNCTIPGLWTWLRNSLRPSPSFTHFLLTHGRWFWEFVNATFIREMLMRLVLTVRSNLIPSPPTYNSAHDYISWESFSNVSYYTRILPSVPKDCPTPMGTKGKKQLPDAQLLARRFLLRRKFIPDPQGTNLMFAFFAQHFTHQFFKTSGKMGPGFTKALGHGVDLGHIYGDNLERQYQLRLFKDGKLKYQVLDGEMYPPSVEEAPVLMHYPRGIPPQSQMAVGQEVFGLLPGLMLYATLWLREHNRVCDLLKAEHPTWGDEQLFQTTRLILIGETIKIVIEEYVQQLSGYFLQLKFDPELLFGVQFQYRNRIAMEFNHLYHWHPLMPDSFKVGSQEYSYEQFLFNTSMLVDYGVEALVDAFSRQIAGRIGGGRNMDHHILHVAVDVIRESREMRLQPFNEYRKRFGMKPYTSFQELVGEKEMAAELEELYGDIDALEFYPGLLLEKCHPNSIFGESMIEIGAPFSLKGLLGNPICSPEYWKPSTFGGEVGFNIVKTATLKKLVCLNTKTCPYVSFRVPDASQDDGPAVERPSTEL

SMILES | IC50 [1] [µM] | also measured
COc1cc(/C=C/CO)cc(OC)c1O[C@@H]1O[C@H](CO)[C@@H](O)[C@H](O)[C@H]1O [SYRINGIN] | 36 | –
CCCCC/C=C\C/C=C\CCCCCCCC(=O)O [LINOLEIC ACID] | 13 | –
O=c1ccc2ccc(O)c(O)c2o1 [DAPHNETIN] | 140 | –
CC/C=C/C/C=C/C/C=C/C/C=C/CCSCCCC(=O)O | 81 | –
CC1(C)CC[C@]2(C)CC[C@]3(C)[C@H]4CC=C5[C@@H](CCC(=O)C5(C)C)[C@]4(C)CC[C@@]3(C)[C@@H]2C1 [GLUTINONE] | 3.6 | –
CC(C)[C@@H]1CC[C@@H](C)C[C@H]1O | – | inhibition [2]: 60%
C=CCc1ccc(OC(C)=O)c(OC)c1 [EUGENYL ACETATE] | 3 | –
COc1c(O)cc([C@H]2Oc3c(c(O)cc(O)c3[C@H]3c4c(O)cc(O)cc4O[C@H](c4ccc(O)cc4)[C@@H]3O)C[C@H]2O)cc1O [OURATEAPROANTHOCYANIDIN A] | 138 | inhibition [3]: 37%
O=C1C[C@@H](c2ccc(O)cc2)Oc2cc(O)cc(O)c21 | – | Activity (J774.A1 [4]): Dose-dependent effect
Oc1cc(O)c2c(c1)O[C@H](c1cc(O)c(O)c(O)c1)[C@@H](O)C2 [GALLOCATECHIN] | 95 | inhibition [5]: 46%
C=C[C@@H](O)C#CC#C[C@@H](O)/C=C\CCCCCCC [FALCARINDIOL] | 66 | –
O=C(/C=C/c1ccc(O)c(O)c1)OCCc1ccccc1 [CAFFEIC ACID PHENETHYL ESTER] | 58 | –
C=C[C@@H](O)C#CC#C[C@@H](O)/C=C/CCCCCCCC(=O)OC(C)=O | 73 | –
O=c1cc(-c2ccc(O)cc2)oc2cc(O)cc(O)c12 [APIGENIN] | – | inhibition [6]: 65%; IC50 (RAW264.7 [7]): 500 nM; inhibition at 5 µM (J774.A1 [8]): 64%
COc1c(O)cc([C@H]2Oc3cc(O)cc(O)c3C[C@H]2O)cc1O | 3.3 | inhibition [9]: 23%
COc1cc(/C=C/CO)ccc1O[C@@H]1O[C@H](CO)[C@@H](O)[C@H](O)[C@H]1O [CONIFERIN] | 75 | –
C=CCc1ccc(O)c(OC)c1 [EUGENOL] | 11 | inhibition [6]: 97%
O=C(O[C@@H]1Cc2c(O)cc(O)cc2O[C@@H]1c1cc(O)c(O)c(O)c1)c1cc(O)c(O)c(O)c1 | – | inhibition [10]: 13%; inhibition [11]: 51%
C=C(C)C(CC=C(C)C)Cc1c(O)cc(OC)c2c1O[C@H](c1ccc(O)cc1O)CC2=O (stereo partly specified) [KURARINONE] | 0.6 | –
CC(C)=CCC12Oc3cc(O)c(C4=CC5(C)CC(C4)c4ccc(O)cc4O5)c(O)c3C(=O)C1(O)Oc1cc(O)ccc12 (stereo unspecified) [SANGGENON B] | 42 | –

SMILES | IC50 [1] [µM] | also measured
COc1ccc2cc1Oc1ccc(cc1)C[C@H]1c3cc(c(OC)cc3CCN1C)Oc1c(O)c(OC)cc3c1[C@H](C2)N(C)CC3 [FANGCHINOLINE] | 129 | –
O=c1c(-c2ccc(O)cc2)coc2cc(O)cc(O)c12 [GENISTEIN] | 80 | –
O=c1c(O)c(-c2ccccc2)oc2cc(O)cc(O)c12 [GALANGIN] | – | inhibition at 5 µM (J774.A1 [8]): 59%
COc1cc(/C=C/C(=O)CC(=O)/C=C/c2ccc(O)c(OC)c2)ccc1O | – | Activity (SKGT4 [12]): Dose-dependent effect; Activity (SKGT4 [13]): Dose-dependent effect
C=C1CCC[C@]2(C)CC[C@@H]([C@@](C)(O)CO)C[C@@]12O [KUTDTRIOL] | 39 | –
C=C1C(=O)C(O)=C[C@@H]2[C@]3(C)CC[C@](C)(C(=O)CO)C[C@@H]3CC[C@]12C [AKENDO 3] | 34 | –
COc1c(O)cc([C@@H]2Oc3cc(O)cc(O)c3C[C@H]2O)cc1O | 12 | inhibition [14]: 61%
C=C1CC/C=C(\C)C(=O)[C@H](OC(C)=O)[C@@H]2[C@@H]1CC2(C)C [BUDDLEDIN A] | 14 | –
COc1cc(O[C@@H]2O[C@H](CO)[C@@H](O)[C@H](O)[C@H]2O)cc2oc(-c3ccc(O)cc3)cc(=O)c12 | – | inhibition [15]: 13%
C[C@@H]1OC(O[C@@H]2[C@@H](O)[C@H](OCCc3ccc(O)c(O)c3)O[C@H](CO[C@@H]3OC[C@](O)(CO)[C@H]3O)[C@H]2OC(=O)/C=C/c2ccc(O)c(O)c2)[C@H](O[C@@H]2OC[C@H](O)[C@H](O)[C@H]2O)[C@H](O)[C@H]1O (stereo partly specified) [BALLOTETROSIDE] | 1000 | –
COc1cc2oc(-c3ccc(O)cc3)cc(=O)c2c(O)c1OC [CIRSIMARITIN] | – | IC50 [16]: 6%
C=C(C)[C@H](CC=C(C)C)Cc1c(O)cc(OC)c(C(=O)/C=C/c2ccc(O)cc2O)c1O [KURAIDIN] | 0.6 | –
CC(C)=CCc1c(O)ccc2ccc(=O)oc12 [OSTHENOL] | 64 | –
COc1cc2ccc(=O)oc2c(O)c1O [FRAXETIN] | 524 | –
O=C(CCc1ccc(O)c(O)c1)C[C@@H](O)CCc1ccc(O)c(O)c1 | – | Activity (MCF-10A): Dose-dependent effect
C[C@@H]1CC(=O)[C@]2(CO)[C@H](CCC[C@]23CO3)[C@@]12C[C@@H](c1ccoc1)OC2=O [GNAPHALIN] | 40 | –
O=C(/C=C/c1ccc(O)c(O)c1)O[C@H](Cc1ccc(O)c(O)c1)C(=O)O | – | inhibition [6]: 58%
CC(=O)Oc1ccccc1C(=O)O | – | inhibition [6]: 46%; inhibition [17]: 52%
COc1cc(-c2cc(=O)c3c(O)c(OC)c(OC)c(O)c3o2)ccc1O | – | inhibition [6]: 37%
O=c1c(O)c(-c2ccc(O)cc2)oc2cc(O)cc(O)c12 [KAEMPFEROL] | – | IC50 (RAW264.7 [18]): < 15 µM

SMILES | IC50 [1] [µM] | also measured
C[C@@H]1O[C@@H](O[C@H]2[C@H](Oc3cc(O)c4c(=O)cc(-c5ccc(O)cc5)oc4c3)O[C@H](CO)[C@@H](O)[C@@H]2O)[C@H](O)[C@H](O)[C@H]1O | – | inhibition [19]: 20%
Cc1ccc(C(C)C)cc1O [CARVACROL] | 4 | –
CC(C)=CCc1c(-c2ccc(O)cc2O)oc2c(CC=C(C)C)c(O)cc(O)c2c1=O [KUWANON C] | 62 | –
O=c1c(O)c(-c2ccc(O)c(O)c2)oc2cc(O)cc(O)c12 | – | inhibition [20]: 90%; inhibition [19]: 40%; Activity (DLD-1): Dose-dependent effect
CC(C)=CCC12Oc3cc(O)ccc3C1(O)Oc1cc(O)c([C@H]3C=C(C)C[C@@H](c4ccc(O)cc4O)[C@@H]3C(=O)c3ccc(O)cc3O)c(O)c1C2=O (stereo partly specified) [SANGGENON D] | 59 | –
CC(=O)[C@H]1CC[C@]2(C)CC[C@@H]([C@](C)(O)CO)C[C@]12O [LUCINONE] | 43 | –
CC(C)=CCc1c([C@@H]2CCc3ccc(O)cc3O2)cc2c(c1O)OC(C)(C)C=C2 [KAZINOL B] | > 100 | –
C=C1CCC[C@]2(C)CC[C@@H]([C@@](C)(O)CO)C[C@]12O | 1.3 | –
CC(C)=CCC/C(C)=C\CC1=CC(=O)C=C(C)C1=O | 64 | –
COc1cc(CNC(=O)CCCC/C=C/C(C)C)ccc1O [CAPSAICIN] | 3.8 | –
O=c1c(O[C@@H]2O[C@H](CO)[C@@H](O)[C@H](O)[C@H]2O)c(-c2ccc(O)c(O)c2)oc2cc(O)cc(O)c12 | – | inhibition [19]: 25%
OC[C@H]1O[C@@H](OCCc2ccc(O)cc2)[C@H](O)[C@@H](O)[C@@H]1O [SALIDROSIDE] | 72 | –
Oc1cc(O)c2c(c1)O[C@H](c1ccc(O)c(O)c1)[C@@H](O)C2 [CIANIDANOL] | 80 | –
CC/C=C/C/C=C/C/C=C/C/C=C/CC/C=C/COCC(=O)O | 50 | –
CC(/C=C/C=C(\C)C(=O)O)=C\C=C\C=C(C)\C=C\C=C(/C)C(=O)O [TRANSCROCETIN] | 28 | –
COc1cc(-c2cc(=O)c3cc(OC)c(OC)cc3o2)ccc1O | – | inhibition [6]: 37%
Oc1cc(O)c2c(c1)O[C@H](c1ccc(O)c(O)c1)[C@H](O)C2 [(-)-EPICATECHIN] | – | IC50 (DLD-1): 415 µM
O=c1cc(-c2ccc(O)c(O)c2)oc2cc(O)cc(O)c12 | – | inhibition [20]: 75%
O=C(O)[C@H]1O[C@@H](Oc2c(-c3cc(O)c(O)c(O)c3)oc3cc(O)cc(O)c3c2=O)[C@H](O)[C@@H](O)[C@@H]1O | 10 | –
